Measurements as given in US20260345635A1, “SPRAY DRIED TREPROSTINIL FORMULATION” (Insmed Incorporated, priority 2023, published 2026).

Legend:
[1] = In vitro aerosol performance of TPIP from HR RS01 DPI by Next Generation Impactor with breath simulator; format: physicochemical; conditions: 30 LPM; for FPD (<5 μm), TP: 16 mg capsule
Method: All the experiments in the following examples of present disclosure were performed with the RS01 Model 7 Plastiape (Plastiape S.p.A., Osnago, Italy) high resistance (HR) (code 239700002AA) DPI device for evaluation. The following examples relate to in vitro aerosol performance of the capsules containing 16 and 32 mg TPIP utilizing the HR RS01 Plastiape device in response to more clinically relevant inhalation profiles deviating from the rectangular wave profile. The aerosol performance were evaluated at different inhalation volumes of 4 L, 2 L or 1 L and at a different peak inspiratory flow rate of 60 LPM corresponding to a pressure drop of 4 kPa or 30 LPM corresponding to a pressure drop of 0.89 kPa across the device to reflect a diverse set of user scenarios.
An RS01 Model 7 Plastiape (Plastiape S.p.A., Osnago, Italy) high resistance (HR) (code 239700002AA) DPI device was used for evaluation. The pressure drop across the HR device containing an empty capsule was measured as a function of flow rate between 30 to 100 L/min (LPM).
To evaluate the differences in aerosol performance in response to different breathing profiles, TPIP aerosol emitted from the HR Plastiape device was delivered to the NGI (MSP Corp., Shoreview, MN) at ambient temperatures and low humidity (<45% RH) under various scenarios generated by the breathing simulator (BRS 3100, Copley), as presented in FIG. 1. A mixing inlet (Copley) was attached in between the pre-separator and the induction port to allow a constant flow rate of 30 or 60 LPM to be achieved through the NGI, while varying the change in inhalation profiles from the HR Plastiape device via BRS system. The outlet port of the NGI was connected to a vacuum pump drawing 30 or 60 LPM airflow (X) via a critical flow controller (TPK 2100, Copley), and an airflow of 30 or 60 LPM (Y) was drawn into the mixing inlet to ensure that initially no airflow (X-Y=0) was drawn through the inhaler. Aerosolization of the powder into the NGI was triggered by the BRS system via a diversion valve that redirects the airflow (Y) into the BRS system. For example, if 30 LPM airflow of Y is redirected to the BRS system, this would cause 30 LPM airflow to be drawn through the inhaler and into the mixing inlet. Therefore, the simulated inhalation profile generated by the BRS system is identical to the inhalation profile through the inhaler.
The BRS software was manually programmed through a Word Pad script to simulate inhalation acceleration rates of 20, 5.88, 2, 1, and 0.5 L/sec^2 corresponding to 50, 170, 500, 1000, and 2000 millisecond (ms) ramp times for a total inhaled volume of 4 L, and for 2 and 1 L inhalation volumes at both extreme acceleration rates to achieve the 60 LPM flow rate. Additionally, the breathing profile scripts for the 1, 2, and 4 L inhalation volumes at 20 and 0.5 L/s^2 (corresponding to 50 and 2000 ms ramp times) to reach the 30 LPM flow rate are included. A trapezoidal waveform was used to maintain the 4 L total inhalation volume as well as to keep the maximum inhalation flow rate at 60 LPM corresponding to the 4 kPa pressure drop across the device (FIG. 2A). Additionally, the breathing profiles with reduced inhalation volumes of 1 and 2 L were evaluated at the two extreme acceleration rates of 20 and 0.5 L/s^2 (corresponding to 50 and 2000 ms ramp times) for the 60 LPM inspiratory flow rate (FIG. 2B), and 25 and 1000 ms ramp times for the 30 LPM inspiratory flow rate (FIG. 2C).
The aerosol performance of each inhalation profile was characterized for TP with respect to its emitted dose (ED), mass median aerodynamic diameter (MMAD), geometric standard deviation (GSD), fine particle fraction<5 μm (FPF) and fine particle dose<5 μm (FPD) as described below. The total recovery of TP was also measured to provide assurance that each experiment was conducted acceptably. […]

[2] = Aerosol performance of TPIP by NGI with four RS01 devices of different resistance; format: physicochemical
Method: FIGS. 8A-8C are graphs showing TP Fine Particle Fraction (FPF) (FIG. 8A); Fine Particle Dose (FPD) as a Function of Device Resistance for the 8 mg (blue), 16 mg (orange), and 32 mg (gray) Capsule Dose (FIG. 8B); and TP FPD as a Function of Capsule Dose for Each Device (FIG. 8C). Trend lines are only shown for the UHR and HR DPIs in FIG. 8C. The ultra-high resistance (UHR), the high resistance (HR), the medium resistance (MR) and the low resistance (LR) devices were tested at 40, 60, 85 and 100 LPM, respectively.
The aerosolized composition is administered to a patient in need of treatment of PH, e.g., PAH or PH associated with interstitial lung disease (PH-ILD). In one embodiment, the aerosolized composition is administered to a patient in need of treatment of pulmonary fibrosis (e.g., PH-ILD where the ILD is pulmonary fibrosis). The aerosolized composition can be characterized by certain parameters known to those of skill in the art, such as fine particle fraction (FPF), fine particle dose (FPD), emitted dose (ED), mass median aerodynamic diameter (MMAD) and/or particle size and distribution. In embodiments, these parameters are measured by NGI. In embodiments, the NGI uses a flow rate corresponding to a 3 kPa to 4.5 kPa air pressure drop relative the resistance of the DPI. In embodiments, the pressure drop is 4 kPa. For example, the performance of an ultra high resistance (UHR), high resistance (HR) and medium resistance (MR) devices may be evaluated by drawing 4 L of air through the DPI at a flow rate of 40, 60 and 85 LPM, respectively, corresponding to the 4 kPa air pressure drop. Aerosol characterization data for the above-noted parameters can be compared across different DPI devices (with different resistances). In embodiments, the mean inhaler resistance of a high resistance DPI used to achieve the parameters described herein ranges from 0.025 to 0.040 kPA^1/2 (L/min^−1)^−1. In embodiments, the mean inhaler resistance of a high resistance DPI used to achieve the parameters described herein ranges from 0.030 to 0.040 kPA^1/2 (L/min^−1)^−1. In embodiments, the mean inhaler resistance of a high resistance DPI used to achieve the parameters described herein ranges from about 0.034 to about 0.036 kPA^1/2 (L/min^−1)^−1.
Four Plastiape RS01 Model 7 DPIs (Plastiape S. p.A., Osnago, Italy) differ with respect to their device resistance: Ultra-high Resistance (UHR, code 239700005AA), High Resistance (HR, code 239700002AA), Medium Resistance (MR, code 239700006AA) and Low Resistance (LR, code 239700001AB). The pressure drop across each device containing an empty capsule was measured as a function of flow rate between 30 and 120 L/min (LPM). The present disclosure teaches that the high resistance DPI device is selected for evaluation and use. A peak inspiratory flow rate of 80 LPM, 60 LPM, 40 LPM, or 30 LPM corresponds to a pressure drop of 5.4 kPa, 4 kPa, 1.4 kPa, or 0.89 kPa, respectively, for the high resistance DPI.
In this Example, Applicant investigated the aerosol performance of TPIP in response to changes in capsule fill, device resistance, and inspiratory flow rate to enable selection of an inhaler for clinical use. Capsules containing 8, 16 or 32 mg of TPIP (80, 160, or 320 μg TP, respectively) were evaluated using four breath-actuated RS01 devices with low, medium, high or ultra-high inspiratory resistances, creating 12 different capsule and device configurations for evaluation.
The TP aerosol particle size distribution profiles for the UHR, HR, MR, and LR DPI devices are shown in FIGS. 7A-7C for the 8, 16 and 32 mg TPIP capsules, respectively. The TP aerosol particle size distribution profiles are polydisperse for the LR, MR and HR devices with the UHR device showing a trend towards a less polydisperse profile. The values for the total mass recoveries, emitted dose, MMAD, GSD, FPF, and FPD for the UHR, HR, MR, and LR devices loaded with 8, 16 and 32 mg TPIP capsules are shown in Table 5.

[3] = 16 mg capsule, all four devices
[4] = 32 mg capsule, LR device, 100 LPM
[5] = 32 mg capsule, MR device (printed MA), 85 LPM

CCCCCCCCCCCCCCCCOC(=O)COc1cccc2c1C[C@H]1C[C@@H](O)[C@H](CC[C@@H](O)CCCCC)[C@H]1C2 [TP, treprostinil palmitil]
ED ([1]; 16 mg capsule, 1, 2, 4 L, 25 ms ramp): 76%
emitted doses ([1]; 16 mg capsule, 1, 2, 4 L, 1000 ms ramp): 72-75%
FPD (<5 μm), TP ([1]; 25 ms ramp, 1 L): 93 µg
FPD (<5 μm), TP ([1]; 25 ms ramp, 4 L): 92 µg
FPD (<5 μm), TP ([1]; 1000 ms ramp, 1 L): 87 µg
FPD (<5 μm), TP ([1]; 1000 ms ramp, 4 L): 90 µg
FPD [2, 3]: 98 to 104 µg
FPF [2, 3]: 71-81%
FPD (<5 μm), TP [2, 4]: 155 µg
FPF (<5 μm) [2, 4]: 58%
FPD (<5 μm), TP [2, 5]: 168 µg
FPF (<5 μm) [2, 5]: 62%
FPD ([2]; 32 mg capsule, UHR and HR devices): 197 to 200 µg
FPF ([2]; 32 mg capsule, all four devices): 58-76%
